In US12458650B2, “Urination disorder-improving agent” (ASKA Pharmaceutical Co., Ltd., priority 2019, dated 2025):

Legend:
[1] = tested on: model of a urination disorder associated with streptozocin-induced diabetes; assay: Test Example 6: urination disorder model associated with streptozocin-induced diabetes, compound A versus dutasteride; format: in vivo, rat
Experimental: As described below, a model of a urination disorder associated with streptozocin-induced diabetes was prepared as a urination disorder model in accordance with Test Example 4 to evaluate the effects of the compound A and the compound C on a urination disorder. This model has no benign prostatic hyperplasia and is a model of a urination disorder associated with neuropathy and smooth muscle contraction disorder.
The body weights of Rats (male, Crl:CD(SD), 5-week-old; Charles River Laboratories Japan, Inc.) were measured. On the basis of the body weight, the rats were grouped or divided into two (2) groups. The day after the rats were grouped, a fist group received intraperitoneal administration of a citrate buffer (pH 4.5) (10 mL/kg) having a concentration of 0.1 mmol/L, and a second group received intraperitoneal administration of streptozocin (STZ; Sigma-Aldrich) (50 mg/kg). Streptozocin (STZ) was administered in the form of a solution of streptozocin having a concentration of 5 mg/mL in the citrate buffer.
About one (1) week after streptozocin (STZ) was administered, the body weight and the fasting blood glucose were measured. In the streptozocin (STZ) administration group (the second group), individuals having a fasting blood glucose level of not less than 300 mg/dL were used as animals with induced diabetes. These animals with induced diabetes are a model having no abnormality of the prostate (having no benign prostatic hyperplasia). On the basis of the body weight and the fasting blood glucose level, the animals (models) with induced diabetes were grouped or divided into three (3) groups by randomized, multivariable block allocation.
To the three model groups with induced diabetes, a 0.5 v/v % Polysorbate 80 solution (0.5% P) (10 mL/kg), the compound A (3 mg/kg), and the compound C (dutasteride) (0.3 mg/kg) were orally administered, respectively, wherein the administration schedule in all groups was a frequency of once a day, only on weekdays, over four (4) weeks. Moreover, to the above-mentioned first group, a 0.5 v/v % Polysorbate 80 solution (0.5% P) (10 mL/kg) was orally administered in the same administration schedule (normal group). On the last day of administration, a cannula was inserted into and secured to the dome of the bladder under isoflurane anesthesia, and cystometry (Cystometogram, CMG) was conducted in the order of under awake condition and under urethane anesthesia to measure the intravesical pressure, the voided volume, and the residual urine volume. After the completion of the measurement, the blood was collected under deep isoflurane anesthesia, and then the prostate (ventral prostate, dorsolateral prostate) was extracted and each was weighed. Moreover, the blood glucose level in the collected blood was measured.
The test substances and the dosage in the test system (rats having the urination disorder associated with diabetes) are as follows. • Normal group: citrate buffer 10 mL/kg (intraperitoneal administration), 0.5% P 10 mL/kg (oral administration) (n=10) • Solvent group (control group): STZ 50 mg/kg (intraperitoneal administration), 0.5% P 10 mL/kg (oral administration) (n=10) • Group A3: STZ 50 mg/kg (intraperitoneal administration), Compound A 3 mg/kg (oral administration) (n=10) • Group C0.3: STZ 50 mg/kg (intraperitoneal administration), Compound C (dutasteride) 0.3 mg/kg (oral administration) (n=10)
Urination parameter: In the same manner as in Test Example 4, the residual urine volume (mL) and the urination efficiency % were determined as urination parameters in each urination, and the average value of two measurements was taken as a measured value of each individual.
Prostate weight: In the same manner as in Test Example 4, the weight of the prostate (ventral prostate, dorsolateral prostate, and whole) was converted to a tissue weight per 100 g of the body weight. […]

[2] = tested on: uterine weight associated with rat deciduoma formation; assay: Test Example 5: antiprogesterone activity, uterine weight associated with rat deciduoma formation in ovariectomized rats; format: in vivo; settings: 192 h, Group D: 3 mg/kg oral once a day, 8 days, ovariectomized female rats, compared with solvent group, FIG. 18, read-out: inhibition rate of uterine weight increase (antiprogesterone action)
Experimental: For the compound A and the compound D (mifepristone), the antiprogesterone activity was measured. Specifically, a sex hormone and a test substance were repeatedly administered to ovariectomized rats as a test system to examine the antiprogesterone action (antiprogesterone activity) based on, as an index, the fluctuation of the uterine weight (the inhibitory action relative to the increase of the weight) associated with rat deciduoma formation.
More specifically, rats (female, Crl:CD(SD), 5-week-old: Charles River Laboratories Japan, Inc.) were subjected to ovariectomy, and from one (1) week after the ovariectomy, a high dose estrone or 5 μg/one animal was hypodermically administered to the rats once a day for three (3) days. From the day after one day rest period, the rats received, once a day over eight (8) days, hypodermic administration of a low dose estrone (1 μg/one animal), intramuscular administration of progesterone (6 mg/kg), and oral administration of a test substance. In the middle of the administration, on Day 4 of the start of administration, the rats were subjected to a stimulation treatment of decidualization reaction to the right uterus. The day after the final administration, the uterine weight (right uterine body) was measured (n=6). Group E was subjected to ovariectomy and a stimulation treatment of decidualization reaction but was not subjected to a hormone treatment.
The test substances and the dosage in the test system (ovariectomized rats) are as follows. • Group E: rats with ovariectomy without hormone treatment • 0.5 v/v % Polysorbate 80 solution, 10 mL/kg (n=6) • Solvent group (control group): 0.5 v/v % Polysorbate 80 solution, 10 mL/kg (n=6) • Group A3: Compound A, 3 mg/kg (n=6) • Group A10: Compound A, 10 mg/kg (n=6) • Group A30: Compound A, 30 mg/kg (n=6) • Group D: Compound D (mifepristone), 3 mg/kg (n=6)

[3] = tested on: lower urinary tract obstruction model of rats; assay: Test Example 1: urination function in female rat lower urinary tract obstruction model (cystometry, tissue wet weights, survival); format: in vivo; settings: 2 weeks
Source text: A lower urinary tract obstruction model of rats was used as a test system. A test substance was orally administered to the lower urinary tract obstruction model repeatedly over two (2) weeks to examine the action on the urination function in the lower urinary tract obstruction model.
More specifically, the rats (female, Crl:CD(SD), 8-week-old; Charles River Laboratories Japan, Inc.) were operated to form lower urinary tract obstruction and repeatedly received oral administration of the test substance at a frequency of once a day over two (2) weeks. After the completion of the administration, each rat was subjected to bladder catheterization under anesthesia, cystometry under no anesthesia, then cystometry under urethane anesthesia, and euthanasia under deep anesthesia, and the tissues (bladder, kidney) of the rat were extracted or surgically removed. As a normal group, the rats without operation for forming lower urinary tract obstruction were used.
The test system, the test substances, and the dosage are as follows. • Normal group: 0.5 v/v. Polysorbate 80 solution, 10 mL/kg (n=6) • Solvent group (control group): 0.5 v/v % Polysorbate 80 solution, 10 mL/kg (n=15) • Group A: Compound A, 10 mg/kg (n=15) • Group B3: Compound B, 3 mg/kg (n=7) • Group B10: Compound B, 10 mg/kg (n=7)
The residual urine volume, the urination efficiency, and the bladder capacity were measured as follows.
After urination, the residual urine was aspirated from the outlet end of the catheter placed in the bladder to measure the volume (mL) of the residual urine.
After urination, the weight of the voided urine was measured to determine the voided volume (g=mL), and then the urination efficiency was calculated by the following equation: Urination efficiency (%)=[(Voided volume (mL))/(Voided volume (mL)+Residual urine volume (mL))]×100 [Bladder Capacity]
The bladder capacity was calculated from the voided volume and the residual urine volume by the following equation: Bladder capacity(mL)=Voided volume (mL)+Residual urine volume (mL)
Moreover, the wet weight of the extracted bladder and that of the extracted kidney were measured.

[4] = Group C0.3: 0.3 mg/kg oral, 4 weeks, relative to solvent group

C[C@]12C=CC(=O)N[C@@H]1CC[C@@H]1[C@@H]2CC[C@]2(C)[C@@H](C(=O)Nc3cc(C(F)(F)F)ccc3C(F)(F)F)CC[C@@H]12 [Compound C, dutasteride, reference compound]
therapeutic effect on diabetes (blood glucose level) ([1]; Group C0.3: 0.3 mg/kg oral, 4 weeks): no therapeutic effect on diabetes | Dorsolateral prostate (atrophy rate) [1, 4]: (37.5%) | Ventral prostate (atrophy rate) [1, 4]: (42.7%) | Whole prostate (atrophy rate) [1, 4]: (40.7%) | bladder contraction force on urination by nomogram analysis (distance from the origin) ([1]; Group C0.3: 0.3 mg/kg, FIG. 21): almost the same position as the solvent group | residual urine volume ([1]; Group C0.3: 0.3 mg/kg, cystometry under awake condition, vs solvent group, FIG. 19): did not statistically affect | urination efficiency ([1]; Group C0.3: 0.3 mg/kg, cystometry under awake condition, vs solvent group, FIG. 20): did not statistically affect

CC#C[C@]1(O)CC[C@H]2[C@@H]3CCC4=CC(=O)CCC4=C3[C@@H](c3ccc(N(C)C)cc3)C[C@@]21C [Compound D, mifepristone, reference compound]
inhibition at 3 mg/kg [2]: 89.5%

CC(=O)O[C@]1(C(C)=O)CC[C@H]2[C@@H]3C=C(Cl)C4=CC(=O)OC[C@]4(C)[C@H]3CC[C@@]21C [Compound B, 17α-acetoxy-6-chloro-2-oxa-4,6-pregnadiene-3,20-dione, reference compound]
residual urine volume ([3]; Groups B3 and B10: 3 mg/kg and 10 mg/kg oral once a day, vs control group, FIG. 1): significantly increased | urination efficiency ([3]; Groups B3 and B10: 3 mg/kg and 10 mg/kg oral once a day, vs control group, FIG. 2): reduced | bladder capacity ([3]; Groups B3 and B10: 3 mg/kg and 10 mg/kg oral once a day, vs control group, FIG. 3): significantly increased | bladder wet weight ([3]; Groups B: 3 mg/kg and 10 mg/kg oral once a day, FIG. 4): in the direction of increasing | kidney wet weight ([3]; Groups B: 3 mg/kg and 10 mg/kg oral once a day, FIG. 5): in the direction of increasing | survival rate ([3]; Groups B: 3 mg/kg and 10 mg/kg oral once a day, FIG. 6): decreased
